Activity data for 1 compound are collected here from ChEMBL document CHEMBL3046767, “Antihepatotoxic activity of a sterol glucoside from aerial parts of Clerodendrum phlomidis” (2012).

Active and inactive are the calls of the source. No cut-off for these calls is given here.

For assay [1], the system named is Rattus norvegicus. The experiment in a line: Antihepatotoxic activity Rattus norvegicus albino Wistar (rat) assessed as recovery of CCl4-induced cell damage at 50 mg/kg, po by hematoxylin and eosin staining. The assay is classed as functional, organism-based. Also noted: dose 50 mg/kg.
For assay [2], the system named is Rattus norvegicus. Kind of assay: Antihepatotoxic activity Rattus norvegicus albino Wistar (rat) assessed as reduction of CCl4-induced reduction of serum total protein level at 50 mg/kg, po relative to control. Also noted: scale not given: the % may be the effect or the level left. The assay is classed as functional.
The subject of assay [3] is Rattus norvegicus. The experiment in a line: Antihepatotoxic activity Rattus norvegicus albino Wistar (rat) assessed as reduction of CCl4-induced increase of serum ALP level at 50 mg/kg, po relative to control. The assay is classed as functional. Also noted: scale not given: the % may be the effect or the level left.
Assay [4] deals with Rattus norvegicus. Kind of assay: Antihepatotoxic activity Rattus norvegicus albino Wistar (rat) assessed as reduction of CCl4-induced increase of serum SGPT level at 50 mg/kg, po relative to control. The assay is classed as functional. Also noted: scale not given: the % may be the effect or the level left.
Assay [5] has as its system Rattus norvegicus. The experiment in a line: Antihepatotoxic activity Rattus norvegicus albino Wistar (rat) assessed as reduction of CCl4-induced increase of serum SGOT level at 50 mg/kg, po relative to control. The assay is classed as functional. Also noted: scale not given: the % may be the effect or the level left.

As to `C=C(C)C(/C=C/[C@@H](C)[C@H]1CCC2C3CC=C4C[C@@H](O[C@@H]5O[C@H](CO)[C@@H](O)[C@H](O)[C@H]5O)CC[C@]4(C)C3CC[C@@]21C)CC` (stereo not given in full), the result in the assay on Rattus norvegicus [1] was Active. Further, the Activity with Rattus norvegicus [2] worked out at 121.19%; in the assay with Rattus norvegicus [3] it was 74.77%; in the assay with Rattus norvegicus [4] it was 52.25%; with Rattus norvegicus [5], 57.71%.
